Assay results: US8017612B2, “Piperazine compound and use thereof as a HCV polymerase inhibitor” (priority 2006, dated 2011)

Tests used:
[1] = biological target: T1, HCV polymerase (NS5B) type 1b (Hepatitis C virus genotype 1b, UniProt P26663); experiment: Assay of enzyme (HCV polymerase) inhibitory activity, type 1b enzyme; format: biochemical, HCV BK strain (type 1b)
T1 construct: a region encoding NS5B (J Virol 1991 March, 65(3), 1105-13, 544 amino acids after deletion of 47 amino acids on the C-terminal); 6xHis (C); made in house; host or cells: Escherichia coli
In short: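 NS5B from HCV BK strain (type 1b), C-terminal 47 aa deleted, C-terminal His6-tagged, E. coli-expressed, 0.5 μg/ml, with ~450 nt substrate RNA carrying the 3′ UTR (polyU, 3′X) at 5 μg/ml. Incubation 60 min at 25 °C with 50 μM ATP/GTP/CTP, 2 μM UTP plus [3H]UTP, pH 7.5 Tris.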

[2] = biological target: T2, HCV polymerase (NS5B) type 1a (Hepatitis C virus genotype 1a, UniProt P26664); experiment: Assay of enzyme (HCV polymerase) inhibitory activity, type 1a enzyme; format: biochemical, HCV type 1a (cloned from the blood of patients)
T2 construct: made in house; host or cells: Escherichia coli (by the 'similar method' of the 1b enzyme)
In short: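 Patient-derived type 1a NS5B (C-terminal 47-aa deletion, His-tagged, E. coli-expressed) at 1.5 μg/ml was reacted with 5 μg/ml 3′UTR-containing substrate RNA, 50 μM ATP/GTP/CTP, 2 μM UTP plus [3H]UTP, pH 7.5, 25° C for 60 min. TCA-precipitated RNA radioactivity was counted; IC50 from ± compound.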

[3] = HCV polymerase inhibitory activity IC50, 1b, type 1b enzyme
[4] = HCV polymerase inhibitory activity IC50, 1a, type 1a enzyme
[5] = HCV polymerase inhibitory activity (IC50), 1b, type 1b enzyme 0.5 μg/ml, 25° C., 60 min
[6] = HCV polymerase inhibitory activity (IC50), 1a, type 1a enzyme 1.5 μg/ml, 25° C., 60 min

## CCN(C)c1ccc(CNC(=O)[C@H]2CN(c3nc4nc(Cl)ncc4s3)CCN2S(=O)(=O)c2ccc(OC(F)(F)F)cc2)cc1 [Example 958, (R)-4-(5-chloro-thiazolo[4,5-d]pyrimidin-2-yl)-1-(4-trifluoromethoxy-benzenesulfonyl)-piperazine-2-carboxylic acid 4-(ethyl-methyl-amino)-benzylamide]
[1]; [3]
  IC50: < 100 nM
[2]; [4]
  IC50: < 100 nM

## CCCc1ccc(S(=O)(=O)N2CCN(c3ncc(C(=O)O)s3)C[C@@H]2C(=O)NCc2ccc(C(C)C)cc2)cc1 [Example 329, 2-[(R)-3-(4-isopropyl-benzylcarbamoyl)-4-(4-propyl-benzenesulfonyl)-piperazin-1-yl]-thiazole-5-carboxylic acid]
[1]; [5]
  IC50: < 100 nM
[2]; [6]
  IC50: < 100 nM

## CC(=O)N1CCN(S(=O)(=O)c2ccc(C(C)C)cc2)[C@@H](C(=O)NCCc2ccncc2)C1 [Example 395, (R)-4-acetyl-1-(4-isopropyl-benzenesulfonyl)-piperazine-2-carboxylic acid (2-pyridin-4-yl-ethyl)-amide]
[1]; [5]
  IC50: > 1000 nM
[2]; [6]
  IC50: > 1000 nM

## CCCc1ccc(CNC(=O)[C@H]2CN(c3nc(C)c(CNC)s3)CCN2S(=O)(=O)c2ccc(OC(F)(F)F)cc2)cc1 [Example 506, (R)-4-(4-methyl-5-methylaminomethyl-thiazol-2-yl)-1-(4-trifluoromethoxy-benzenesulfonyl)-piperazine-2-carboxylic acid 4-propyl-benzylamide]
[1]; [5]
  IC50: < 100 nM
[2]; [6]
  IC50: < 100 nM

## CCCc1ccc(CNC(=O)[C@H]2CN(C(C)=O)CCN2S(=O)(=O)c2ccc(OC(F)(F)F)cc2)cc1 [Example 450, (R)-4-acetyl-1-(4-trifluoromethoxy-benzenesulfonyl)-piperazine-2-carboxylic acid 4-propyl-benzylamide]
[1]; [5]
  IC50: < 100 nM
[2]; [6]
  IC50: < 100 nM

## CC(C)(C)OC(=O)N1CCc2nc(N3CCN(S(=O)(=O)c4ccc(OC(F)(F)F)cc4)[C@@H](C(=O)NCc4ccc(C(C)(C)C)cc4)C3)sc2C1 [Example 587, 2-[(R)-3-(4-tert-butyl-benzylcarbamoyl)-4-(4-trifluoromethoxy-benzenesulfonyl)-piperazin-1-yl]-6,7-dihydro-4H-thiazolo[5,4-c]pyridine-5-carboxylic acid tert-butyl ester]
[1]; [5]
  IC50: < 100 nM
[2]; [6]
  IC50: 100 to 1000 nM

## CCCc1ccc(S(=O)(=O)N2CCN(c3nc(C)c(C(=O)O)s3)C[C@@H]2C(=O)NCc2ccc(C(C)C)cc2)cc1 [Example 299, 2-[(R)-3-(4-isopropyl-benzylcarbamoyl)-4-(4-propyl-benzenesulfonyl)-piperazin-1-yl]-4-methyl-thiazole-5-carboxylic acid]
[1]; [5]
  IC50: < 100 nM
[2]; [6]
  IC50: < 100 nM

## CC(C)(C)c1ccc(CNC(=O)[C@H]2CN(c3nc4c(s3)C(=O)NC4=O)CCN2S(=O)(=O)c2ccc(OC(F)(F)F)cc2)cc1 [Example 573, (R)-4-(4,6-dioxo-5,6-dihydro-4H-pyrrolo[3,4-d]thiazol-2-yl)-1-(4-trifluoromethoxy-benzenesulfonyl)-piperazine-2-carboxylic acid 4-tert-butyl-benzylamide]
[1]; [5]
  IC50: < 100 nM
[2]; [6]
  IC50: < 100 nM

## CCC(F)(F)c1ccc(CNC(=O)[C@H]2CN(C(=O)Cc3nnn(C)n3)CCN2S(=O)(=O)c2ccc(OC(F)(F)F)cc2)cc1 [Example 518, (R)-4-[2-(2-methyl-2H-tetrazol-5-yl)-acetyl]-1-(4-trifluoromethoxy-benzenesulfonyl)-piperazine-2-carboxylic acid 4-(1,1-difluoro-propyl)-benzylamide]
[1]; [5]
  IC50: < 100 nM
[2]; [6]
  IC50: < 100 nM

## CC(=O)N1CCN(S(=O)(=O)c2ccc(C(C)C)cc2)[C@@H](C(=O)NCc2ccc(-c3csnn3)cc2)C1 [Example 492, (R)-4-acetyl-1-(4-isopropyl-benzenesulfonyl)-piperazine-2-carboxylic acid 4-[1,2,3]thiadiazol-4-yl-benzylamide]
[1]; [5]
  IC50: 100 to 1000 nM
[2]; [6]
  IC50: > 1000 nM

## CCC(F)(F)c1ccc(CNC(=O)[C@H]2CN(C(=O)Nc3ccnc(CO)c3)CCN2S(=O)(=O)c2ccc(OC(F)(F)F)cc2)cc1 [Example 511, (R)-4-(4-trifluoromethoxy-benzenesulfonyl)-piperazine-1,3-dicarboxylic acid 3-[4-(1,1-difluoro-propyl)-benzylamide] 1-[(2-hydroxymethyl-pyridin-4-yl)-amide]]
[1]; [5]
  IC50: < 100 nM
[2]; [6]
  IC50: < 100 nM

## CCOC(=O)c1sc(N2CCN(S(=O)(=O)c3ccc(OC(F)(F)F)cc3)[C@@H](C(=O)NCc3ccc(C(C)(C)C)cc3)C2)nc1N [Example 582, 4-amino-2-[(R)-3-(4-tert-butyl-benzylcarbamoyl)-4-(4-trifluoromethoxy-benzenesulfonyl)-piperazin-1-yl]-thiazole-5-carboxylic acid ethyl ester]
[1]; [5]
  IC50: 100 to 1000 nM
[2]; [6]
  IC50: 100 to 1000 nM

## CCC(CC)c1ccc(CNC(=O)C2CN(C(C)=O)CCN2S(=O)(=O)c2ccc(C(C)C)cc2)cc1 (stereo not shown) [Example 163, 4-acetyl-1-(4-isopropyl-benzenesulfonyl)-piperazine-2-carboxylic acid 4-(1-ethyl-propyl)-benzylamide]
[1]; [5]
  IC50: 100 to 1000 nM
[2]; [6]
  IC50: 100 to 1000 nM

## CC(=O)c1sc(N2CCN(S(=O)(=O)c3ccc(OC(F)(F)F)cc3)[C@@H](C(=O)NCc3ccc(OC(F)(F)F)cc3)C2)nc1C [Example 978, (R)-4-(5-acetyl-4-methyl-thiazol-2-yl)-1-(4-trifluoromethoxy-benzenesulfonyl)-piperazine-2-carboxylic acid 4-trifluoromethoxy-benzylamide]
[1]; [3]
  IC50: < 100 nM
[2]; [4]
  IC50: < 100 nM

## Cc1nc(N2CCN(S(=O)(=O)c3ccc(OC(F)(F)F)cc3)[C@@H](C(=O)NCc3ccc(OC(F)(F)F)cc3)C2)cnc1C(=O)O [Example 809, (R)-6′-methyl-4-(4-trifluoromethoxy-benzenesulfonyl)-3-(4-trifluoromethoxy-benzylcarbamoyl)-3,4,5,6-tetrahydro-2H-[1,2′]bipyrazinyl-5′-carboxylic acid]
[1]; [3]
  IC50: < 100 nM
[2]; [4]
  IC50: < 100 nM

## CCCc1ccc(S(=O)(=O)N2CCN(c3nc(C)c(C(N)=O)s3)C[C@@H]2C(=O)NCc2ccc(C(C)C)cc2)cc1 [Example 333, (R)-4-(5-carbamoyl-4-methyl-thiazol-2-yl)-1-(4-propyl-benzenesulfonyl)-piperazine-2-carboxylic acid 4-isopropyl-benzylamide]
[1]; [5]
  IC50: < 100 nM
[2]; [6]
  IC50: < 100 nM

## O=C(NCc1ccc(OC(F)F)cc1)[C@H]1CN(c2nc3ncncc3s2)CCN1S(=O)(=O)c1ccc(OC(F)(F)F)cc1 [Example 932, (R)-4-thiazolo[4,5-d]pyrimidin-2-yl-1-(4-trifluoromethoxy-benzenesulfonyl)-piperazine-2-carboxylic acid 4-difluoromethoxy-benzylamide]
[1]; [3]
  IC50: < 100 nM
[2]; [4]
  IC50: < 100 nM

## CCC(F)(F)c1ccc(CNC(=O)[C@H]2CN(c3cnc4cncnc4n3)CCN2S(=O)(=O)c2ccc(-c3cccc(O)c3)cc2)cc1 [Example 725, (R)-1-(3′-hydroxy-biphenyl-4-sulfonyl)-4-pteridin-7-yl-piperazine-2-carboxylic acid 4-(1,1-difluoro-propyl)-benzylamide]
[1]; [3]
  IC50: < 100 nM
[2]; [4]
  IC50: < 100 nM

## CCC(F)(F)c1ccc(CNC(=O)[C@H]2CN(c3cnc4c(n3)NC(=O)OC4)CCN2S(=O)(=O)c2ccc(OC(F)(F)F)cc2)cc1 [Example 616, (R)-4-(2-oxo-1,4-dihydro-2H-pyrazino[2,3-d][1,3]oxazin-7-yl)-1-(4-trifluoromethoxy-benzenesulfonyl)-piperazine-2-carboxylic acid 4-(1,1-difluoro-propyl)-benzylamide]
[1]; [5]
  IC50: < 100 nM
[2]; [6]
  IC50: < 100 nM

## CC(=O)N1CCN(S(=O)(=O)c2ccc(C(C)C)cc2)C(C(=O)NCc2ccc(-c3ccc(Cl)cc3)cc2)C1 (stereo not shown) [Example 116, 4-acetyl-1-(4-isopropyl-benzenesulfonyl)-piperazine-2-carboxylic acid (4′-chloro-biphenyl-4-ylmethyl)-amide]
[1]; [5]
  IC50: > 1000 nM
[2]; [6]
  IC50: > 1000 nM

## O=C(NCc1ccc(OC(F)(F)F)cc1)[C@H]1CN(c2nc3cn[nH]c(=O)c3s2)CCN1S(=O)(=O)c1ccc([N+](=O)[O-])cc1 [Example 835, (R)-1-(4-nitro-benzenesulfonyl)-4-(7-oxo-6,7-dihydro-thiazolo[4,5-d]pyridazin-2-yl)-piperazine-2-carboxylic acid 4-trifluoromethoxy-benzylamide]
[1]; [3]
  IC50: < 100 nM
[2]; [4]
  IC50: < 100 nM

## CCCN1CC=C(CNC(=O)[C@H]2CN(c3cnc4cncnc4n3)CCN2S(=O)(=O)c2ccc(OC(F)(F)F)cc2)CC1 [Example 662, (R)-4-pteridin-7-yl-1-(4-trifluoromethoxy-benzenesulfonyl)-piperazine-2-carboxylic acid (1-propyl-1,2,3,6-tetrahydro-pyridin-4-ylmethyl)-amide]
[1]; [3]
  IC50: 100 to 1000 nM
[2]; [4]
  IC50: > 1000 nM

## CCCc1ccc(CNC(=O)[C@H]2CN(c3ccc(C(=O)O)c(C)n3)CCN2S(=O)(=O)c2ccc(OC(F)(F)F)cc2)cc1 [Example 822, 2-methyl-6-[(R)-3-(4-propyl-benzylcarbamoyl)-4-(4-trifluoromethoxy-benzenesulfonyl)-piperazin-1-yl]-nicotinic acid]
[1]; [3]
  IC50: < 100 nM
[2]; [4]
  IC50: < 100 nM
